In PMC7730238, “Temporin-Like Peptides Show Antimicrobial and Anti-Biofilm Activities against Streptococcus mutans with Reduced Hemolysis” (Molecules, 2020):
No end group written: not given here.

Columns and labels:
[1] = system: S. mutans biofilms; type: cell-based, Streptococcus mutans; conditions: S. mutans in BHI with 1% sucrose, 24 h anaerobic, CV staining, absorbance 590 nm
Experimental: CV was used to detect the effects of the peptides on the formation of biofilm and the eradication of mature biofilm. 100 μL of S. mutans in the logarithmic phase was diluted in BHI (containing 1% sucrose) to the concentration of 2 × 10^6 CFU/mL. The suspensions were added to the equal volume of the peptides (the final concentrations of 0.8–12.5 μM). After incubation at 37 °C under anaerobic conditions for 24 h, the supernatant was discarded. The plate was irrigated with PBS carefully to wash away the planktonic bacteria. After fixing with anhydrous methanol for 15 min, 0.5% CV was added to each well for staining the biofilms. The excess CV was washed away by PBS (pH 7.2), and the bound CV was dissolved with anhydrous methanol. A microplate reader (Multiskan Spectrum, BioTek, Winuski, VT, USA) was used to measure the absorbance value of 590 nm. MBIC50 was defined as the lowest peptide concentration that inhibited 50% of biofilm formation.

[2] = system: Bacillus subtilis (ATCC 6633); type: cell-based; conditions: for MIC: ATCC 6633; for MBC: ATCC 6633, 24 h
Excerpt: (§1) The strains were used in the experiments, including Gram-positive bacteria Staphylococcus aureus (ATCC 25923), Bacillus subtilis (ATCC 6633), Streptococcus mutans (ATCC 25175), Methicillin-resistant Staphylococcus aureus (ATCC 43300), Methicillin-resistant Staphylococcus aureus 1–3 (clinically isolated, number 1–3), Gram-negative bacteria Escherichia coli (ATCC 25922), E. coli (D 31), Pseudomonas aeruginosa (ATCC 15442), P. aeruginosa PAO1 (wild type), and the fungus Candida albicans (ATCC 10231). S. mutans was cultured in Brain Heart Infusion Broth (BHI, Beijing Land Bridge, China) under anaerobic condition; C. albicans was grown in Sabouraud Dextrose Broth (SDB, HuanKai Microbial, Guangzhou, China); and the other bacterial strains were grown in Tryptic Soy Broth (TSB, HuanKai Microbial, Guangzhou, China). All bacteria and fungi were cultivated to the logarithmic phase at 37 °C before experiments were performed.
(§2) The antimicrobial activities of the peptides were measured by the two-fold dilution method. Each strain was inoculated in the medium and cultivated to the logarithmic phase. A series of diluted peptides (concentrations of 3.1–100 μM, 50 μL) were prepared in a 96-well plate (Corning, New York, NY, USA), and the same volume of the bacterial suspension (the final concentration of 1 × 10^6 CFU/mL) was added. After incubation at 37 °C for 18–24 h, the absorbance at 600 nm was measured by using a microplate reader (Multiskan Spectrum, BioTek, Winuski, VT, USA). […] All tests were performed in triplicate independent experiments.
(§3) From the MIC measuring plates, 50 μL of bacteria suspension in the presence of peptides when the concentrations were equal and up to MICs was spread on the BHI agar medium, and incubated at 37 °C for 24 h. The peptide concentration with no bacterial growth was defined as MBC [33].

[3] = system: Escherichia coli (ATCC 25922); type: cell-based; conditions: for MIC: ATCC 25922; for MBC: ATCC 25922, 24 h
Excerpt: as §1, §2, §3

[4] = system: Streptococcus mutans (ATCC 25175); type: cell-based; conditions: for MIC: ATCC 25175; for MBC: ATCC 25175, 24 h
Excerpt: as §1, §2, §3

[5] = system: Pseudomonas aeruginosa (ATCC 15442); type: cell-based; conditions: for MIC: ATCC 15442; for MBC: ATCC 15442, 24 h
Excerpt: as §1, §2, §3

[6] = system: Candida albicans (ATCC 10231); type: cell-based; conditions: for MIC: ATCC 10231; for MBC: ATCC 10231, 24 h
Excerpt: as §1, §2, §3

[7] = system: Staphylococcus aureus (ATCC 25923); type: cell-based; conditions: for MIC: ATCC 25923; for MBC: ATCC 25923, 24 h
Excerpt: as §1, §2, §3

[8] = system: Human red blood cells (hRBCs); type: cell-based
Experimental: The hemolytic toxicity of the peptides was determined as described. Human red blood cells (hRBCs) were washed with phosphate-buffered saline (PBS, pH 7.2) and centrifuged at 1000× g for 10 min at 4 °C until the supernatant was clear. 4% hRBCs and an equal volume of the peptides with different concentrations were incubated at 37 °C for 1 h. After incubation, the supernatant was collected by centrifugation, and 150 μL was transferred to a new 96-well plate (Corning, New York, NY, USA). The absorbance at 450 nm was measured. The 0.1% Triton X-100 was used as the positive control, and PBS was used as the negative control. The minimum hemolysis concentration (MHC) was defined as the lowest concentration of peptide that causes 10% hemolysis, and HL50 was the lowest concentration that causes 50% hemolysis. CSI was defined as the ratio of HL50 to MIC [31].

[9] = system: S. mutans mature biofilms; experiment: Mature biofilm eradication, crystal violet; type: cell-based, Streptococcus mutans; conditions: 24 h mature S. mutans biofilms, 24 h treatment, CV staining, absorbance 590 nm
Experimental: To evaluate the ability of the peptides to eradicate the mature biofilms of S. mutans, the bacteria (the final concentration of 1 × 10^6 CFU/mL) were seeded in a flat bottom 96-well plate for 24 h to obtain the mature biofilms. The planktonic bacteria were washed away, and the peptides with the concentrations of 3.1–50 μM were added. After treatment for 24 h, CV was used for staining and quantification as described above. The biofilms untreated with the peptides served as the negative control. MBEC50 was defined as the lowest peptide concentration that removed 50% of the mature biofilm.

[10] = system: MRSA-1, methicillin-resistant S. aureus (clinically isolated, No.1); type: cell-based, Staphylococcus aureus; conditions: for MIC: -1, methicillin-resistant (clinically isolated, No.1); for MBC: -1, methicillin-resistant (clinically isolated, No.1, 24 h)
Excerpt: as §1, §2, §3

[11] = system: MRSA-2, methicillin-resistant S. aureus (clinically isolated, No.2); type: cell-based, Staphylococcus aureus; conditions: for MIC: -2, methicillin-resistant (clinically isolated, No.2); for MBC: -2, methicillin-resistant (clinically isolated, No.2, 24 h)
Excerpt: as §1, §2, §3

[12] = system: methicillin-resistant S. aureus (ATCC 43300); type: cell-based, Staphylococcus aureus; conditions: for MIC: ATCC 43300; for MBC: ATCC 43300, 24 h
Excerpt: as §1, §2, §3

[13] = system: MRSA-3, methicillin-resistant S. aureus (clinically isolated, No.3); type: cell-based, Staphylococcus aureus; conditions: for MIC: -3, methicillin-resistant (clinically isolated, No.3); for MBC: -3, methicillin-resistant (clinically isolated, No.3, 24 h)
Excerpt: as §1, §2, §3

[14] = system: P. aeruginosa PAO1 (wild type); type: cell-based, Pseudomonas aeruginosa; conditions: for MIC: PAO1; for MBC: PAO1, 24 h
Excerpt: as §1, §2, §3

[15] = system: E. coli (D31), anti-streptomycin strain; type: cell-based, Escherichia coli; conditions: 37 °C; for MIC: TSB, 1 × 10^6 CFU/mL, 18–24 h, absorbance 600 nm, triplicate, first value of cell; for MBC: plated from MIC wells on agar, 24 h, no growth, second value of cell
Excerpt: as §1, §2, §3

Sequence | MIC [3] [µM] | MBC [3] [µM] | MIC [4] [µM] | MBC [4] [µM] | MIC [5] [µM] | MBC [5] [µM] | MIC [6] [µM] | MBC [6] [µM] | MIC [7] [µM] | MBC [7] [µM] | MIC [10] [µM] | MBC [10] [µM] | MIC [11] [µM] | MBC [11] [µM] | MIC [12] [µM] | MBC [12] [µM] | MIC [13] [µM] | MBC [13] [µM] | MIC [14] [µM] | MBC [14] [µM] | also measured
FLQRIIGRLGRLF [GHaR8R] | 3.1 | 3.1 | 6.2 | 6.2 | 50 | > 50 | 12.5 | 12.5 | 1.6 to 3.1 | 3.1 | 6.2 | 6.2 | 3.1 | 12.5 | 3.1 | 3.1 | 6.2 | 12.5 | 6.2 | 12.5 | time to complete eradication: < 15 min; MBIC50 (lowest peptide concentration that inhibited 50% of biofilm formation) [1]: 1.6 µM; MIC [2]: 12.5 µM; MBC [2]: 12.5 µM; HL50 relative to that of GHaR [8]: 1–5 times higher; MBEC50 (lowest peptide concentration that removed 50% of the mature biofilm) [9]: 12.5 µM; MIC [15]: 12.5 µM; MBC [15]: 25 µM
FLQRIIRALGRLF [GHaR7R] | 3.1 | 12.5 | 6.2 | 12.5 | > 50 | > 50 | 25 | 25 | 3.1 | 3.1 | 6.2 | 25 | 6.2 | 50 | 3.1 | 6.2 | 6.2 | 25 | > 50 | > 50 | MBIC50 (lowest peptide concentration that inhibited 50% of biofilm formation) [1]: 6.2 µM; MIC [2]: > 50 µM; MBC [2]: > 50 µM; MBEC50 (lowest peptide concentration that removed 50% of the mature biofilm) [9]: 25 µM; MIC [15]: 12.5 µM; MBC [15]: 50 µM
FLQRIIGAWGRLF [GHaR9W] | 12.5 | 12.5 | 6.2 | 6.2 | > 50 | > 50 | 25 | 25 | 3.1 | 6.2 | 6.2 | 12.5 | 6.2 | 12.5 | 6.2 | 12.5 | 6.2 | 12.5 | 25 | 50 | HL50 relative to that of GHaR [8]: 1–5 times higher
FLQRIRGALGRLF [GHaR6R] | 12.5 | 12.5 | 12.5 | 12.5 | > 50 | > 50 | 50 | 50 | 3.1 | 12.5 | 12.5 | 25 | 12.5 | 25 | 6.2 | 12.5 | 6.2 | 25 | 3.1 | 25 | time to complete eradication: < 15 min; MBIC50 (lowest peptide concentration that inhibited 50% of biofilm formation) [1]: 6.2 µM; MIC [2]: 25 µM; MBC [2]: 50 µM; HL50 relative to that of GHaR [8]: 1–5 times higher; MBEC50 (lowest peptide concentration that removed 50% of the mature biofilm) [9]: 25 µM; MIC [15]: 25 µM; MBC [15]: 50 µM
FLQRIIGALGRLF [GHaR] | 6.2 | 6.2 | 3.1 | 6.2 | 6.2 | 6.2 | 12.5 | 50 | 1.6 | 1.6 | 3.1 | 25 | 6.2 | 12.5 | 3.1 | 3.1 | 3.1 | 6.2 | 25 | 50 | –
FLQRIIGARGRLF [GHaR9R] | > 50 | > 50 | > 50 | > 50 | > 50 | > 50 | > 50 | > 50 | 6.2 | 12.5 | > 50 | > 50 | > 50 | > 50 | > 50 | > 50 | > 50 | > 50 | > 50 | > 50 | MIC [2]: > 50 µM; MBC [2]: > 50 µM
